Assay results: the OligoGym collection
HELM strings list units from the 5' end as sugar, base in round brackets, then linkage (d deoxyribose, r ribose, m 2'-O-methyl, p phosphodiester). Strings are as the collection lists them; they lack the last nucleoside at the 3' end of the tested compound. [moe] = 2'-O-(2-methoxyethyl) (MOE); [sp] = phosphorothioate linkage; [m5C] = 5-methylcytosine

The substances below were run against PRNP (assay: mouse, dose not given). Settings: ASO.
In the case of “RNA1{[moe](A)[sp].[moe]([m5C])p.[moe](T)p.[moe](T)p.[moe](G)[sp].d(T)[sp].d([m5C])[sp].d(A)[sp].d(G)[sp].d(T)[sp].d(T)[sp].d(T)[sp].d(T)[sp].d(T)[sp].d([m5C])[sp].[moe]([m5C])p.[moe]([m5C])p.[moe]([m5C])[sp].[moe](A)}$$$$ (last 3' nucleoside missing)”, the 3 h FOB score is reported as 1 score 0-7.
“RNA1{[moe](T)[sp].[moe]([m5C])p.[moe](T)p.[moe](A)p.[moe](T)p.d(G)[sp].d(T)[sp].d(T)[sp].d(T)[sp].d(T)[sp].d([m5C])[sp].d([m5C])[sp].d(A)[sp].d(G)[sp].[moe](T)[sp].[moe](G)p.[moe]([m5C])p.[moe]([m5C])}$$$$ (last 3' nucleoside missing)” was tested, and the 3 h FOB score was 0 score 0-7.
“RNA1{[moe](T)[sp].[moe](A)p.[moe](G)p.[moe](G)p.[moe]([m5C])[sp].d(T)[sp].d([m5C])[sp].d(T)[sp].d(T)[sp].d(T)[sp].d(T)[sp].d([m5C])[sp].d([m5C])[sp].d(A)[sp].d(G)[sp].[moe](G)p.[moe](T)p.[moe](G)[sp].[moe](T)}$$$$ (last 3' nucleoside missing)” showed a 3 h FOB score of 1 score 0-7.
“RNA1{[moe](A)[sp].[moe](A)p.[moe](T)p.[moe](T)p.[moe](T)[sp].d([m5C])[sp].d(T)[sp].d(T)[sp].d(T)[sp].d(T)[sp].d(T)[sp].d([m5C])[sp].d([m5C])[sp].d(A)[sp].d([m5C])[sp].[moe](T)p.[moe](T)p.[moe]([m5C])[sp].[moe](A)}$$$$ (last 3' nucleoside missing)” showed a 3 h FOB score of 0 score 0-7.
Substance “RNA1{[moe](T)[sp].[moe](G)p.[moe]([m5C])p.[moe](T)p.[moe](T)[sp].d(A)[sp].d(T)[sp].d(T)[sp].d(A)[sp].d(T)[sp].d(T)[sp].d([m5C])[sp].d(A)[sp].d(T)[sp].d(G)[sp].[moe](T)p.[moe](T)p.[moe]([m5C])[sp].[moe](T)}$$$$ (last 3' nucleoside missing)” has a 3 h FOB score of 0 score 0-7.
In the case of “RNA1{[moe](G)[sp].[moe](G)p.[moe](T)p.[moe](G)p.[moe](A)[sp].d(T)[sp].d(T)[sp].d(T)[sp].d(T)[sp].d(T)[sp].d(T)[sp].d([m5C])[sp].d([m5C])[sp].d(T)[sp].d(T)[sp].[moe](T)p.[moe]([m5C])p.[moe](T)[sp].[moe](T)}$$$$ (last 3' nucleoside missing)”, the 3 h FOB score is reported as 1 score 0-7.
With “RNA1{[moe]([m5C])[sp].[moe](A)p.[moe](G)p.[moe](G)p.[moe](G)[sp].d(A)[sp].d(A)[sp].d(T)[sp].d(A)[sp].d(A)[sp].d(T)[sp].d(T)[sp].d(T)[sp].d(T)[sp].d(A)[sp].[moe]([m5C])p.[moe](T)p.[moe](T)[sp].[moe](T)}$$$$ (last 3' nucleoside missing)” the 3 h FOB score was 0 score 0-7.
“RNA1{[moe](T)[sp].[moe]([m5C])p.[moe]([m5C])p.[moe](A)p.[moe](T)[sp].d(T)[sp].d(T)[sp].d(T)[sp].d([m5C])[sp].d(T)[sp].d(G)[sp].d(T)[sp].d(G)[sp].d([m5C])[sp].d(T)[sp].[moe](T)p.[moe](T)p.[moe](T)[sp].[moe]([m5C])}$$$$ (last 3' nucleoside missing)” showed a 3 h FOB score of 3.75 score 0-7.
For “RNA1{[moe](G)[sp].[moe](T)p.[moe]([m5C])p.[moe]([m5C])p.[moe](A)[sp].d(T)[sp].d(T)[sp].d(T)[sp].d(T)[sp].d([m5C])[sp].d(T)[sp].d(G)[sp].d(T)[sp].d(G)[sp].d([m5C])[sp].[moe](T)p.[moe](T)p.[moe](T)[sp].[moe](T)}$$$$ (last 3' nucleoside missing)”, the 3 h FOB score was 4.5 score 0-7.
For “RNA1{[moe](G)[sp].[moe](T)p.[moe](A)p.[moe](T)p.[moe](G)[sp].d(T)[sp].d([m5C])[sp].d(A)[sp].d(A)[sp].d(A)[sp].d(A)[sp].d(T)[sp].d([m5C])[sp].d(A)[sp].d(T)[sp].[moe](T)p.[moe]([m5C])p.[moe](T)[sp].[moe](G)}$$$$ (last 3' nucleoside missing)”, the 3 h FOB score was 6 score 0-7.
With “RNA1{[moe](A)[sp].[moe](T)p.[moe](G)p.[moe](G)p.[moe](T)[sp].d(G)[sp].d([m5C])[sp].d(T)[sp].d(T)[sp].d(T)[sp].d([m5C])[sp].d(A)[sp].d([m5C])[sp].d(A)[sp].d(A)[sp].[moe]([m5C])p.[moe](T)p.[moe](G)[sp].[moe]([m5C])}$$$$ (last 3' nucleoside missing)” the 3 h FOB score was 1 score 0-7.
In the case of “RNA1{[moe](A)[sp].[moe](T)p.[moe](G)p.[moe](G)p.[moe]([m5C])[sp].d(A)[sp].d([m5C])[sp].d(T)[sp].d(T)[sp].d(T)[sp].d([m5C])[sp].d(T)[sp].d(T)[sp].d(T)[sp].d(T)[sp].[moe](T)p.[moe](A)p.[moe](T)[sp].[moe](T)}$$$$ (last 3' nucleoside missing)”, the 3 h FOB score is reported as 1 score 0-7.
With “RNA1{[moe](A)[sp].[moe](T)p.[moe]([m5C])p.[moe](A)p.[moe](T)[sp].d(T)[sp].d(T)[sp].d(T)[sp].d(G)[sp].d([m5C])[sp].d([m5C])[sp].d(A)[sp].d(T)[sp].d(T)[sp].d(T)[sp].[moe](A)p.[moe](T)p.[moe]([m5C])[sp].[moe](T)}$$$$ (last 3' nucleoside missing)” the 3 h FOB score was 3.25 score 0-7.
“RNA1{[moe](G)[sp].[moe]([m5C])p.[moe]([m5C])p.[moe](A)p.[moe]([m5C])p.[moe](A)p.d(T)[sp].d(A)[sp].d(T)[sp].d(A)[sp].d(G)[sp].d(G)[sp].d(G)[sp].d(T)[sp].d([m5C])[sp].d([m5C])[sp].[moe](T)p.[moe](T)[sp].[moe](T)}$$$$ (last 3' nucleoside missing)” was tested, and the 3 h FOB score was 4 score 0-7.
Substance “RNA1{[moe](G)[sp].[moe](T)p.[moe](T)p.[moe](A)p.[moe](G)[sp].d([m5C])[sp].d(T)[sp].d(T)[sp].d(T)[sp].d(T)[sp].d(T)[sp].d(T)[sp].d(T)[sp].d([m5C])[sp].d(A)[sp].[moe]([m5C])p.[moe](T)p.[moe](G)[sp].[moe](T)}$$$$ (last 3' nucleoside missing)” has a 3 h FOB score of 0.5 score 0-7.
Work on “RNA1{[moe]([m5C])[sp].[moe](T)p.[moe]([m5C])p.d(T)[sp].d(A)[sp].d(T)[sp].d(G)[sp].d(T)[sp].d(T)[sp].d(T)[sp].d(T)[sp].d([m5C])[sp].d([m5C])[sp].[moe](A)p.[moe](G)p.[moe](T)p.[moe](G)p.[moe]([m5C])[sp].[moe]([m5C])}$$$$ (last 3' nucleoside missing)” yielded a 3 h FOB score of 3 score 0-7.
In the case of “RNA1{[moe](A)[sp].[moe](T)p.[moe](G)p.[moe](T)p.[moe](T)[sp].d(A)[sp].d([m5C])[sp].d(A)[sp].d(G)[sp].d(T)[sp].d(T)[sp].d(A)[sp].d(T)[sp].d(G)[sp].d(T)[sp].[moe](T)p.[moe]([m5C])p.[moe](A)[sp].[moe]([m5C])}$$$$ (last 3' nucleoside missing)”, the 3 h FOB score is reported as 2.5 score 0-7.
Substance “RNA1{[moe](T)[sp].[moe](T)p.[moe](T)p.[moe](A)p.[moe]([m5C])[sp].d(T)[sp].d(T)[sp].d(T)[sp].d(T)[sp].d([m5C])[sp].d(A)[sp].d(G)[sp].d([m5C])[sp].d(T)[sp].d(G)[sp].[moe]([m5C])p.[moe]([m5C])p.[moe](T)[sp].[moe](T)}$$$$ (last 3' nucleoside missing)” has a 3 h FOB score of 6 score 0-7.
For “RNA1{[moe](G)[sp].[moe](T)p.[moe]([m5C])p.[moe](A)p.[moe](A)[sp].d(A)[sp].d(A)[sp].d(T)[sp].d([m5C])[sp].d(A)[sp].d(T)[sp].d(T)[sp].d([m5C])[sp].d(T)[sp].d(G)[sp].[moe](G)p.[moe](T)p.[moe](T)[sp].[moe](T)}$$$$ (last 3' nucleoside missing)”, the 3 h FOB score was 1 score 0-7.
“RNA1{[moe](G)[sp].[moe](G)p.[moe]([m5C])p.[moe](A)p.[moe]([m5C])[sp].d(T)[sp].d(T)[sp].d(T)[sp].d([m5C])[sp].d(T)[sp].d(T)[sp].d(T)[sp].d(T)[sp].d(T)[sp].d(A)[sp].[moe](T)p.[moe](T)p.[moe](T)[sp].[moe]([m5C])}$$$$ (last 3' nucleoside missing)” gave a 3 h FOB score of 1 score 0-7.
Substance “RNA1{[moe](T)[sp].[moe]([m5C])p.[moe](A)p.[moe](T)p.[moe](A)p.d(A)[sp].d(T)[sp].d(T)[sp].d(T)[sp].d(T)[sp].d([m5C])[sp].d(T)[sp].d(T)[sp].d(A)[sp].[moe](G)p.[moe]([m5C])p.[moe](T)[sp].[moe](A)}$$$$ (last 3' nucleoside missing)” has a 3 h FOB score of 0 score 0-7.
“RNA1{[moe](G)[sp].[moe]([m5C])p.[moe](A)p.[moe]([m5C])p.d(A)[sp].d([m5C])[sp].d(T)[sp].d(G)[sp].d(A)[sp].d([m5C])[sp].d([m5C])[sp].d(A)[sp].d(T)[sp].d(T)[sp].[moe](T)p.[moe](T)p.[moe](T)p.[moe](T)[sp].[moe](A)}$$$$ (last 3' nucleoside missing)” showed a 3 h FOB score of 2.25 score 0-7.
Work on “RNA1{[moe](A)[sp].[moe](T)p.[moe](T)p.[moe](T)p.[moe](A)[sp].d([m5C])[sp].d(T)[sp].d(T)[sp].d(T)[sp].d(T)[sp].d([m5C])[sp].d(A)[sp].d(G)[sp].d([m5C])[sp].d(T)[sp].[moe](G)p.[moe]([m5C])p.[moe]([m5C])[sp].[moe](T)}$$$$ (last 3' nucleoside missing)” yielded a 3 h FOB score of 3 score 0-7.
“RNA1{[moe](T)[sp].[moe](G)p.[moe](G)p.[moe](T)p.[moe](T)[sp].d(A)[sp].d(T)[sp].d(T)[sp].d(T)[sp].d(T)[sp].d(A)[sp].d(A)[sp].d(T)[sp].d(A)[sp].d(G)[sp].[moe](A)p.[moe](T)p.[moe](G)[sp].[moe](T)}$$$$ (last 3' nucleoside missing)” gave a 3 h FOB score of 1 score 0-7.
Substance “RNA1{[moe](G)[sp].[moe](T)p.[moe](T)p.[moe]([m5C])p.[moe](A)[sp].d(G)[sp].d(T)[sp].d(G)[sp].d(T)[sp].d(T)[sp].d(G)[sp].d(T)[sp].d(G)[sp].d(A)[sp].d([m5C])[sp].[moe](A)p.[moe](A)p.[moe](T)[sp].[moe](A)}$$$$ (last 3' nucleoside missing)” has a 3 h FOB score of 6.75 score 0-7.
“RNA1{[moe](A)[sp].[moe](G)p.[moe]([m5C])p.[moe](T)p.[moe]([m5C])[sp].d(T)[sp].d([m5C])[sp].d([m5C])[sp].d(T)[sp].d(G)[sp].d(T)[sp].d(A)[sp].d(T)[sp].d(G)[sp].d(T)[sp].[moe]([m5C])p.[moe](A)p.[moe](A)[sp].[moe](A)}$$$$ (last 3' nucleoside missing)” showed a 3 h FOB score of 4.75 score 0-7.
